# The source made the active and inactive calls. No cut-off for these calls is given here.
# Experiments:
# [1] = tested on: Nucleic Acid; assay: Binding affinity to dT12 DNA by circular dichroism spectra analysis; format: nucleic-acid assay
# [2] = tested on: Nucleic Acid; assay: Binding affinity to dT12 DNA by ultraviolet spectra analysis; format: nucleic-acid assay
# [3] = tested on: Nucleic Acid; assay: Binding affinity to poly(U) RNA by circular dichroism spectra analysis; format: nucleic-acid assay
# [4] = tested on: Nucleic Acid; assay: Binding affinity to poly(U) RNA by ultraviolet spectra analysis; format: nucleic-acid assay
# [5] = tested on: Moloney murine leukemia virus; assay: Inhibition of Moloney murine leukemia virus reverse transcriptase at 0.5 ug after 1 hr by RT-PCR analysis relative to control
# [6] = tested on: Moloney murine leukemia virus; assay: Inhibition of Moloney murine leukemia virus reverse transcriptase at 1 ug after 1 hr by RT-PCR analysis relative to control
# [7] = biological target: Human immunodeficiency virus type 1 reverse transcriptase (Human immunodeficiency virus 1) (UniProt Q72547); assay: Inhibition of HIV1 reverse transcriptase at 0.5 to 1 ug after 1 hr by RT-PCR analysis relative to control
smiles,measurement,setting,value
Cc1cn(CC(=O)NCCCC[C@H](N)C(=O)NCC[C@H](N)C(=O)NCCCC[C@H](N)C(=O)NCC[C@H](N)C(=O)NCCCC[C@H](N)C(=O)NCC[C@H](N)C(=O)NCCCC[C@H](N)C(=O)NCC[C@H](N)C(=O)NCCCC[C@H](N)C(=O)NCC[C@H](N)C(=O)NCCCC[C@H](N)C(=O)NCC[C@H](N)C(=O)NCCCC[C@H](N)C(=O)NCC[C@H](N)C(=O)NCCCC[C@H](N)C(=O)NCC[C@H](N)C(=O)NCCCC[C@H](N)C(N)=O)c(=O)[nH]c1=O,Activity,[1],inactive
same,Activity,[2],inactive
same,Activity,[3],Active
same,Activity,[4],Active
same,inhibition,[5],30%
same,inhibition,[6],18%
same,inhibition,[7],60%

# Source: ChEMBL document CHEMBL1764992, “RNA-binding and viral reverse transcriptase inhibitory activity of a novel cationic diamino acid-based peptide” (J Med Chem, 2011)
